Results published in patent US20120232290A1, “REACTIVITY OF HYDROXYMETHYLGLUTARYL COENZYME A (HMG-COA) REDUCTASE INHIBITORS CONTAINING CONJUGATED DIENES WITH PHENOLIC ANTIOXIDANTS IN THE SOLID-STATE” (priority 2007, published 2012).
Where two headings read alike, the source gives them in different places.

Assays:
[1] = Stability of isolated simvastatin hydroperoxide degradates on storage; format: physicochemical; conditions: stored under freezer conditions
[2] = aqueous solution, radical initiator; cited from earlier work
[3] = format: physicochemical; conditions: for hydroxy and hydroperoxide products formed: reactions with antioxidants, determined by LC/MS; for decrease in concentration of statin / change in concentration of statin: solid-state, 50° C., 9 days
Protocol: Solvents used varied due to the solubility of the statin. […] The beaker was placed in a dark oven maintained at 50° C. overnight. The beaker was removed from the oven, allowed to cool, then 20 mL of solvent were added and the beaker swirled to redissolve the solid. The beaker was returned to the oven and heated an additional 24 h at 50° C. This dissolution and heating process was repeated daily for the duration of the specific experiment. […] Reversed-phase HPLC analyses were performed using an Agilent 1100 HPLC with an Agilent diode array detector acquiring data in the range of 205-400 nm. This LC/MS-compatible method utilized a Discovery RP Amide C16 250 mm×4.6 mm, 5 μm column (Supelco Inc, Bellefonte Pa.). Mobile phase A was aqueous 0.1% (v/v) formic acid and mobile phase B was acetonitrile containing 0.1% (v/v) formic acid. Mobile phase flow rate was 1 mL/min and the column was maintained at 30° C. The elution sequence was isocratic 60% A:40% B for 0.5 min; a gradient of 60% A:40% B to 50% A:50% B over 1.5 min then hold for 28 min; 50% A:50% B to 20% A:80% B over 1.0 min then hold for 3 min; 20% A:80% B to 100% B over 1.0 min then hold for 4 min. LC/MS analyses were performed using a Waters Acquity UPLC with PDA and a Micro Quattro MS with infusion pump with the LC method described above.

Row | SMILES | degradation of statin [3] | change in concentration of statin ([3]; with BHA) | change in concentration of statin ([3]; with α-tocopherol) | decomposition of isolate on storage [1] | hydroxy and hydroperoxide products formed [3] | other results
1 | CCC(C)(C)C(=O)OC1C[C@@](C)(OO)C=C2C=CC(C)C(CCC3CC(O)CC(=O)O3)C21 (stereo partly drawn) [3(R)-hydroperoxysimvastatin] |  |  |  | slowly decomposed to numerous products over a few days |  | 
2 | CCC(C)(C)C(=O)OC1C[C@](C)(OO)C=C2C=CC(C)C(CCC3CC(O)CC(=O)O3)C21 (stereo partly drawn) [3(S)-hydroperoxysimvastatin] |  |  |  | slowly decomposed to numerous products over a few days |  | 
3 | CC[C@H](C)C(=O)O[C@H]1CCC=C2C=C[C@H](C)[C@H](CC[C@@H]3C[C@@H](O)CC(=O)O3)[C@H]21 [mevastatin] | Minimal degradation | no decrease | no decrease |  | minimal quantities of hydroxy and hydroperoxide products | change in concentration of statin ([3]; incubated alone): no decrease; change in concentration of statin ([3]; with propyl gallate): no decrease

The next lines start with results.

Row | degradation of statin [3] | change in concentration of statin ([3]; with BHA) | change in concentration of statin ([3]; with α-tocopherol) | SMILES | decomposition of isolate on storage [1] | hydroxy and hydroperoxide products formed [3] | other results
4 | Minimal degradation | remained essentially unchanged | remained essentially unchanged | CC[C@H](C)C(=O)O[C@H]1C[C@@H](C)C=C2C=C[C@H](C)[C@H](CC[C@@H]3C[C@@H](O)CC(=O)O3)[C@H]21 [lovastatin] |  | minimal quantities of hydroxy and hydroperoxide products | rates of oxidation (lovastatin versus simvastatin) [2]: nearly identical rates of oxidation; decrease in concentration of statin ([3]; incubated alone): about 12%; decrease in concentration of statin ([3]; with propyl gallate): about 12%
5 | Minimal degradation |  |  | CC[C@H](C)C(=O)O[C@H]1C[C@H](O)C=C2C=C[C@H](C)[C@H](CC[C@@H](O)C[C@@H](O)CC(=O)O)[C@H]21 [pravastatin] |  |  | 
